Measured values as given in US5185251A, “Microbial transformation of a substituted pyridinone using actinoplanacete sp. MA 6559” (Merck & Co., Inc., priority 1991, dated 1993).

Target: T1, recombinant HIV reverse transcriptase (HIV RTR) (Human immunodeficiency virus type 1 group M subtype B, UniProt P04585)
T1 construct: recombinant HIV reverse transcriptase
Experiment: Reverse Transcriptase Assay (incorporation of tritiated deoxyguanosine monophosphate into acid-precipitable cDNA)
Format: biochemical
Conditions: for inhibition of incorporation of deoxyguanosine monophosphate by HIV reverse transcriptase (in words): at the Km values of dGTP and poly r(C).oligo d(G)12-18; for IC50: poly r(C).oligo d(G)12-18 template, dGTP at about Km, 37° C., 45 minutes, read-out: calculated IC50
Experimental: The assay measures the incorporation of tritiated deoxyguanosine monophosphate by recombinant HIV reverse transcriptase (HIV RTR) (or other RT) into acid-precipitable cDNA at the Km values of dGTP and poly r(C).oligo d(G)12-18.
Thirty uL of a reaction mixture containing equal volumes of: 500 mM Tris.HCl (pH 8.2), 300 mM MgCl2, 1200 mM KCl, 10 mM DTT, 400 μg/mL poly r(c).oligo d(G) [prepared by dissolving 1.5 mg (25 U) poly r(C).oligo d(G) in 1.5 ml sterile distilled H2 O and diluting to 400 μg/ml], 0.1 μCi/μl [^3 H] dGTP, 160 μM dGTP, was added to 10 μl sterile distilled H2 O, 2.5 μl of potential inhibitor. Ten μL of 3.2 nM purified HIV RTR were added to start the reaction. The mixture was incubated at 37° C. for 45 minutes.
After incubation was complete, the tubes were cooled in ice for 5 minutes. Ice-cold 13% TCA containing 10 mM NaPPi (200 μl) was added and the mixture incubated on ice for 30 minutes. The precipitated cDNA was removed by filtration using presoaked glass filters [TCA, NaPPi ]. The precipitate was then washed with 1N HCl, 10 mM NaPPi. The filter discs were then counted in a Packard scintillation counter.
Under these conditions [dGTP] and poly r(C).oligo d(G)12-18 each are approximately equal to the appropriate Km value. Approximately 5-6,000 cpm of [^3 H] GMP are incorporated into acid-precipitable material. The RT reaction is concentration- and time-dependent.

For `Cc1[nH]c(=O)c(CCc2nc3ccccc3o2)cc1C(C)O` (racemic) [Compound (I), (+/-)-3-[2-(benzoxazol-2-yl)ethyl]-5-(1-hydroxyethyl)-6-methyl-2(1H)-pyridinone], the “inhibition of incorporation of deoxyguanosine monophosphate by HIV reverse transcriptase (in words)” value was “inhibit this incorporation” and the IC50 was about 18.7 µM.
With `CCc1cc(CCc2nc3ccccc3o2)c(=O)[nH]c1CO` [Compound (II), 3-[2-(benzoxazol-2-yl)ethyl]-5-ethyl-6-hydroxymethyl-2(1H)-pyridinone] the “inhibition of incorporation of deoxyguanosine monophosphate by HIV reverse transcriptase (in words)” value was “inhibit this incorporation” and the IC50 was about 0.044 µM.
